Measurements reported in patent US20250360113A1, “ADMINISTRATION OF DHB TO INCREASE BENEFIT OF LOSING WEIGHT OF INTERMITTENT FASTING” (NANJING NUTRABUILDING BIO-TECH CO., LTD., priority 2023, published 2025).
“Also recorded” adds a separate entry of the source.

Key:
[1] = Normal-diet mice given DHB with or without EODF, tested by the same method; assay type: in vivo, C57BL/6 male mice; details: normal mice on normal diet
Experimental: 40 C57BL/6 male mice aged about 8 weeks, are randomly assigned to four study groups (GA1, GA2, GA3, GA4) of ten mice each (one cage, […]). Mice were maintained in a pathogen free condition under a strict 12 h light/dark cycle (0600/1800 h) with 12-15 cycles/hour of air change. Mice were provided with access to respective feed and water ad libitum as per experimental conditions. Mice were housed under controlled laboratory conditions of temperature and humidity at 23±2° C. and 50±10% RH, respectively. Each study group consisted of ten animals, and treatment details of the individual study groups are given below: • Group A1 (GA1, NC): Normal mice, maintained on normal diet (standard chow, 12% calories from fat; 23% calories from protein and 65% calories from carbohydrates) for 8 weeks, receiving neither EODF nor DHB treatment. • Group A2 (GA2): Normal mice, maintained on normal diet for 8 weeks, receiving only EODF and no DHB treatment. • Group A3 (GA3): Normal mice, maintained on normal diet for 8 weeks, receiving only DHB treatment and no EODF. • Group A4(GA4): Normal mice, maintained on normal diet for 8 weeks, receiving DHB treatment and EODF combination. Test according to the above method. […] This effect persists for as long as the test protocol is continued.

[2] = Plasma TCHO, TG, LDL, VLDL measured with kits at end of study; assay type: in vivo, C57BL/6 male mice; details: HFD obese mice, DHB 70 mg/kg i.g. daily with or without EODF vs no DHB
Experimental: 50 C57BL/6 male mice aged about 8 weeks, are randomly assigned to five study groups (GA, GB1, GB2, GB3, GB4) of ten mice each (one cage, n=5 per condition). Mice were maintained in a pathogen free condition under a strict 12 h light/dark cycle (0600/1800 h) with 12-15 cycles/hour of air change. Mice were provided with access to respective feed and water ad libitum as per experimental conditions. Mice were housed under controlled laboratory conditions of temperature and humidity at 23±2° C. and 50±10% RH, respectively. Each study group consisted of ten animals, and treatment details of the individual study groups are given below: • Group A (GA, NC): Normal mice, maintained on normal diet (standard chow, 12% calories from fat; 23% calories from protein and 65% calories from carbohydrates) for 8 weeks, receiving neither EODF nor DHB treatment. • Group B1 (GB1): Obese mice, maintained on high fat diet (HFD, 60% calories from fat, 20% calories from protein, 20% calories from carbohydrate) for 8 weeks, receiving neither EODF nor DHB treatment. • Group B2 (GB2): Obese mice, maintained on HFD for 8 weeks, receiving only EODF and no DHB treatment. • Group B3 (GB3): Obese mice, maintained on HFD for 8 weeks, receiving only DHB treatment and no EODF. • Group B4 (GB4): Obese mice, maintained on HFD for 8 weeks, receiving DHB treatment and EODF combination. DHB was administered daily via intragastric injection (i.g.) according to a level of 70 mg/kg body weight. Mice not receiving DHB were given orally with ultrapure water. At the end of the study blood was collected from all test groups and a various clinical parameter: plasma total cholesterol (TCHO), triglyceride (TG), low density lipoprotein (LDL), very low-density lipoprotein (VLDL) were measured using corresponding kits according to the manufacturers' instructions.

[3] = mice, including mice lacking the intestinal bacteria needed to break down BBR; cited from earlier work
[4] = Body weight and body composition of HFD obese mice given DHB with or without EODF; assay type: in vivo, C57BL/6 male mice
Experimental: 50 C57BL/6 male mice aged about 8 weeks, are randomly assigned to five study groups (GA, GB1, GB2, GB3, GB4) of ten mice each (one cage, n=5 per condition). Mice were maintained in a pathogen free condition under a strict 12 h light/dark cycle (0600/1800 h) with 12-15 cycles/hour of air change. Mice were provided with access to respective feed and water ad libitum as per experimental conditions. Mice were housed under controlled laboratory conditions of temperature and humidity at 23±2° C. and 50±10% RH, respectively.
Each study group consisted of ten animals, and treatment details of the individual study groups are given below: • Group A (GA, NC): Normal mice, maintained on normal diet (standard chow, 12% calories from fat; 23% calories from protein and 65% calories from carbohydrates) for 8 weeks, receiving neither EODF nor DHB treatment. • Group B1 (GB1): Obese mice, maintained on high fat diet (HFD, 60% calories from fat, 20% calories from protein, 20% calories from carbohydrate) for 8 weeks, receiving neither EODF nor DHB treatment. • Group B2 (GB2): Obese mice, maintained on HFD for 8 weeks, receiving only EODF and no DHB treatment. • Group B3 (GB3): Obese mice, maintained on HFD for 8 weeks, receiving only DHB treatment and no EODF. • Group B4 (GB4): Obese mice, maintained on HFD for 8 weeks, receiving DHB treatment and EODF combination.
The total experimental time is 19 weeks, including two periods: an elevent-week induction period and a subsequent eight-week treatment period.
HFD fed male mice in groups at 8 weeks of age were randomly assigned into either ad libitum, or EODF groups on a per cage basis. All cage bedding was changed to paper bedding for the duration of the model. Mice in the EODF group had total deprivation of food and ad libitum access to water from 1200 h-1200 h on alternate days with ad libitum food and water access. EODF cages were changed upon induction of fasting. Ad libitum control mice cages were changed every other day with fresh food provided.
DHB was administered daily via intragastric injection (i.g.) according to a level of 70 mg/kg body weight. Mice not receiving DHB were given orally with ultrapure water.
Each mouse's body weight is measured weekly during the study at 1200 h. Each animal's body composition was measured and recorded before the treatment and weekly during the study at 1200 h by Nuclear Magnetic Resonance Body Composition Analyzer in accordance with manufacturer's instruction. After sacrifice, subcutaneous fat and para-renal fat were weighed.

[5] = DHB 70 mg/kg i.g. daily + EODF combination vs EODF only

COc1ccc2c(c1OC)CN1CCc3cc4c(cc3C1=C2)OCO4 [DHB, Dihydroberberine]
effects (same tests as in obese mice) ([1]; DHB + EODF combination vs EODF only): greater effects | effectiveness (same tests as in obese mice) ([1]; DHB vs no DHB with and without EODF): greater effectiveness | TG ([2]; FIG. 5): lower levels | TCHO ([2]; FIG. 6): lower levels | LDL ([2]; FIG. 7): lower levels | VLDL ([2]; FIG. 8): lower levels | absorption compared with BBR [3]: better absorbed | body fat [4, 5]: reducing | body weight [4, 5]: reducing; also recorded: greater effects on weight loss | para-renal fat [4, 5]: reducing | subcutaneous fat [4, 5]: reducing | body composition ([4]; DHB 70 mg/kg i.g. daily, 8 weeks, with or without EODF, vs same HFD with and without EODF, no DHB, FIGS. 1-4): greater reduction in body composition
